PMC4406087, “Remaining challenges in cellular flavin cofactor homeostasis and flavoprotein biogenesis” (Frontiers in Chemistry, 2015)

Legend:
6His-hFADS2 [1] = molecular target: T1, 6His-hFADS2 (Homo sapiens, UniProt Q8NFF5); test: spectrofluorimetric FAD synthesis assay, Dixon plot; type: biochemical; conditions: 50 mM Tris-HCl pH 7.5, 5 mM MgCl2, 37°C; product inhibition: competitive vs FMN, non-competitive vs ATP
T1 construct: gene FLAD1; recombinant 6His-tagged cytosolic isoform 2, purified

6His-hFADS2 [2] = molecular target: T1, 6His-hFADS2; test: flavin fluorescence of protein band on SDS-PAGE under UV; type: biochemical; conditions: tightly but not covalently bound, 1 mol FAD per monomer; fluorescence lost on transfer to apo-Me2GlyDH
6His-apo-Me2GlyDH = molecular target: T2, 6His-apo-Me2GlyDH (Rattus norvegicus, UniProt Q63342); test: as above; type: binding; conditions: covalent; 20 μM FAD, 50 mM Tris-HCl pH 7.5, 5 mM MgCl2, 5 mM ATP, 0.5% Triton X-100, 37°C; stimulated by rat liver mitochondrial matrix
T2 construct: gene Dmgdh; 6His-tagged, E. coli, purified apo-form
T2 sequence (Q63342 44-857): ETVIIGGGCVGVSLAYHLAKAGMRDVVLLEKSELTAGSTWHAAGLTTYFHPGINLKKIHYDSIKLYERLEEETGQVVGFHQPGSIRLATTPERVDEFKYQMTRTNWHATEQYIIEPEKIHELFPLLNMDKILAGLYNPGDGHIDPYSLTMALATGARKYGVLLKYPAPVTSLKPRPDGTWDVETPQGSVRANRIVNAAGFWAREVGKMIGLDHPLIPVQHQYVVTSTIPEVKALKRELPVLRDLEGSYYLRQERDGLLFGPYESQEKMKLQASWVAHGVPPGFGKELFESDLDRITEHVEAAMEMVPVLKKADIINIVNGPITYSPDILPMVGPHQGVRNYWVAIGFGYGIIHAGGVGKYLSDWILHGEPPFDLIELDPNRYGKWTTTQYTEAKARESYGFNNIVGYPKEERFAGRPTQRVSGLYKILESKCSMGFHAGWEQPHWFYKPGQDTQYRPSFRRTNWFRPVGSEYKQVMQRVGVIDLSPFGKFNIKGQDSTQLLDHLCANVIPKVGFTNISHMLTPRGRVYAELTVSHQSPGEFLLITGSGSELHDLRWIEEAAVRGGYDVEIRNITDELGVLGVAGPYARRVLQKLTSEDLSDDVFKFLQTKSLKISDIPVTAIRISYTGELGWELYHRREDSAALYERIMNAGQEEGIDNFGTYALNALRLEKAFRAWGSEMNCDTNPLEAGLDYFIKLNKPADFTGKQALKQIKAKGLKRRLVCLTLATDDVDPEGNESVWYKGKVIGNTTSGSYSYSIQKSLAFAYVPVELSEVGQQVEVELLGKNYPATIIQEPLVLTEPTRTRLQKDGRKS

T1 sequence (Q8NFF5 98-587 limits assumed): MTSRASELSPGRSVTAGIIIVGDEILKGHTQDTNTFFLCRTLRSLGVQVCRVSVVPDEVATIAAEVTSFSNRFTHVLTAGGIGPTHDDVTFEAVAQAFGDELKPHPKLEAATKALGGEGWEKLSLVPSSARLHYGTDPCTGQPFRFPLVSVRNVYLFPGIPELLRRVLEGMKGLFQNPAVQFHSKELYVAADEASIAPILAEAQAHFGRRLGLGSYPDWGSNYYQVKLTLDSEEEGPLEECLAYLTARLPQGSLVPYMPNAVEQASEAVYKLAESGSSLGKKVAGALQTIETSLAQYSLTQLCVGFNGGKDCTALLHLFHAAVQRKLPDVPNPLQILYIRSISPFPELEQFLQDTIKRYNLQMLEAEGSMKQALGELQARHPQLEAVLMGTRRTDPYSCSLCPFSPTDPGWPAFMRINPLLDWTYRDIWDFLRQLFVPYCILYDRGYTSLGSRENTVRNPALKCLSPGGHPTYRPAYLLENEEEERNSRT

Structure (SMILES) | spectrofluorimetric FAD synthesis assay, Dixon plot (6His-hFADS2 [1]) | flavin fluorescence of protein band on SDS-PAGE under UV (6His-hFADS2 [2]) | flavin fluorescence of protein band on SDS-PAGE under UV (6His-apo-Me2GlyDH)
O=P(O)(O)OP(=O)(O)O [PPi] | the inhibition by PPi against FMN is consistent with competitive inhibition |  | 
Cc1cc2nc3c(=O)[nH]c(=O)nc-3n(C[C@H](O)[C@H](O)[C@H](O)COP(=O)(O)OP(=O)(O)OC[C@H]3O[C@@H](n4cnc5c(N)ncnc54)[C@H](O)[C@@H]3O)c2cc1C [FAD] |  | hFADS loses its fluorescence upon incubation with apo-Me2GlyDH | mitochondrial matrix is able to stimulate apo-Me2GlyDH flavinylation
